The source of these data is ChEMBL document CHEMBL3507680, “University of Dundee, Gates Library screen for HepG2 cell viability”.

The nature of the series: Human HepG2 cell viability assay in 384 well format. To be noted: HepG2 cells, read-out: Inhibition. Type of series: toxicity, cell-based. Set-up: dose 125 nL, time 70.5 hour; cytotoxicity at 70.5 h: concentration not given beside the values.
Consider `CCc1csc(C2CCCN(C(=O)c3ccc(OC)nc3)C2)n1` (stereo not drawn), for which the cytotoxicity at 70.5 h is -1.94%.

In the case of `CCc1csc(C2CCCN(C(=O)CCn3cc(C)cn3)C2)n1` (stereo not drawn), the cytotoxicity at 70.5 h worked out at 17.5%. With `CC(NC(=O)C(C)(C)C#N)c1ccc(OCC2CC2)c(F)c1` (stereo not drawn) the figure was -6.52%; with `COc1ccc(S(=O)(=O)NC(=O)c2c(C)noc2C(C)C)cc1OC`, -2.97%; with `CC(NC(=O)Cc1ccon1)c1ccc(OCC2CC2)c(F)c1` (stereo not drawn), -7.52%. With `CC(NC(=O)c1csnn1)c1ccc(OCC2CC2)c(F)c1` (stereo not drawn) the figure was 14.5%; with `Cc1cc(CC(=O)NC(C)c2ccc(OCC3CC3)c(F)c2)n[nH]1` (stereo not drawn), -7.64%. With `CC(NC(=O)Cn1ccnc1)c1ccc(OCC2CC2)c(F)c1` (stereo not drawn) the figure was 0.552%; with `CCc1nccn1C1CCCN(C(=O)c2cncn2-c2ccccc2)C1` (stereo not drawn), -6.28%.

Consider `CCc1csc(C2CCCN(C(=O)c3ccc4c(c3)OCO4)C2)n1` (stereo not drawn), for which the cytotoxicity at 70.5 h is 13.2%. With `CCc1nccn1C1CCCN(C(=O)c2ccnc(C)n2)C1` (stereo not drawn) the figure was -7.48%. With `CC(C(=O)N(C)C)N1CCCN(C(=O)Oc2ccccc2)CC1` (stereo not drawn) the figure was -9.71%; with `COCc1csc(NC(=O)N2CCC(Cc3cnn(C)c3)C2)n1` (stereo not drawn), -4.37%. With `CCNC(=O)CN1CCN(c2cc(C)nc(-c3ccncc3)n2)CC1` the figure was -0.76%; with `CC(C)CNC(=O)CNC(=O)NC(C)COc1ccccc1F` (stereo not drawn), -13.5%; with `COc1ccc2c(c1)CN(CC(=O)NC1CCCC1)CC2`, -12.6%. For the compound `CC(C)(C)c1n[nH]c(C2CN(C(=O)c3cc(C4CC4)[nH]n3)CCO2)n1` (stereo not drawn), the cytotoxicity at 70.5 h was -1.31%. As to `CC(C)(C)c1n[nH]c(C2CN(C(=O)c3cnc[nH]3)CCO2)n1` (stereo not drawn), the cytotoxicity at 70.5 h was -7.66%. With `Cn1cc(CC2CCN(C(=O)NCc3csc(C4CC4)n3)C2)cn1` (stereo not drawn) the figure was 0.703%; with `CC(C)c1n[nH]c(C2CN(C(=O)c3cc(C4CC4)on3)CCO2)n1` (stereo not drawn), -11.3%; with `O=C(NCc1nnc2n1CCC2)NCC1(c2cccc(F)c2)CC1`, -5.65%. With `Cc1cnn(CC2CCCN2C(=O)CCc2ccco2)c1` (stereo not drawn) the figure was -6.55%; with `O=C(NCCc1nnc2n1CCC2)NCC1(c2ccccc2)CC1`, 14%; with `Cc1nc(C)c(C(=O)N2CCCC(n3ccnc3C)C2)s1` (stereo not drawn), -3.06%. With `COCCCNC(=O)c1ccccc1S(C)(=O)=O` the figure was -13.3%; with `Cc1cnn(CC2CCCN2C(=O)CCc2c(C)noc2C)c1` (stereo not drawn), 12.1%; with `COc1ncccc1C(=O)N1CCCC(n2ccnc2C)C1` (stereo not drawn), -10.3%.

As for `CCOc1nnc(CN(C)C2CCCN(c3ccc(C)nn3)C2)s1` (stereo not drawn), the cytotoxicity at 70.5 h is -3.1%. With `CSc1nsc(NC(=O)N2CCc3ccccc3C2)n1` the figure was -4.59%. With `Cc1ncc(CN(C)C2CCCN(c3cccnn3)C2)s1` (stereo not drawn) the figure was -2.85%; with `CN(C)c1ncc(CNS(=O)(=O)c2cc(F)ccc2Cl)n1C`, -9.08%; with `CCCN1C(=O)C2(CCCCC2)NC1c1c[nH]nc1-c1cccnc1` (stereo not drawn), 12.8%. With `CC(C(=O)Nc1ncccn1)N1CCc2[nH]nc(C(F)(F)F)c2C1` (stereo not drawn) the figure was -6.74%; with `CC(c1ccccc1)N1CCC(NC(=O)CCc2ccsc2)CC1` (stereo not drawn), -7.82%; with `COc1ccc(-n2ccc(CNCc3ccc(OC)c(O)c3)n2)cc1`, 2.11%. For `NS(=O)(=O)CCNC(=O)c1cc2cccc(F)c2o1`, the cytotoxicity at 70.5 h stood at 18%. With `CN(C)c1ncc(CNS(=O)(=O)c2cccc3ccccc23)n1C` the figure was -11.7%; with `COc1nc(C)ccc1CNC(=O)NC(C)Cc1c(C)nn(C)c1C` (stereo not drawn), -9.98%. With `CCC1(c2ccc(NS(=O)(=O)c3ccc(Cl)s3)cc2)CCC(=O)NC1=O` (stereo not drawn) the figure was -11.2%; with `CC(C)CN1C(=O)C2(CCCC2)NC1c1c[nH]nc1-c1cccnc1` (stereo not drawn), -3.57%; with `CC(=O)NCC1CCN(c2ccnc3ccc(Br)cc23)CC1`, -2.63%.

On to `Cc1ccc(-n2nnnc2C2(NCc3ccco3)CCCC2)cc1`, for which the cytotoxicity at 70.5 h was -13.6%. With `CCN(CCCNC(=O)c1cc2cccc(F)c2o1)S(C)(=O)=O` the figure was -8.74%; with `COc1ccccc1CC(C)(C)NC(=O)CN(C)C(C)C`, -11.5%. With `O=C(CC1CCCO1)NCCc1ccccc1Br` (stereo not drawn) the figure was -2.65%. In the case of `CCC(CNS(N)(=O)=O)Oc1ccccc1F` (stereo not drawn), the cytotoxicity at 70.5 h was -7.45%. With `CN1C(=O)CC(N(C)Cc2nc3ccccc3c(=O)[nH]2)C1=O` (stereo not drawn) the figure was 23.4%; with `CC(C)CCN1C(=O)CC(N(C)Cc2nc3ccccc3c(=O)[nH]2)C1=O` (stereo not drawn), -6.43%; with `CC(NC(=O)c1cccnc1N(C)C)c1ccccc1Br` (stereo not drawn), 20.1%. With `CN(C)c1ccc(NC(=O)NCc2cccs2)cn1` the figure was -6.16%; with `CN(C)c1ccc(NC(=O)NCc2ccc(Cl)s2)cn1`, -7.08%; with `CCC(NCc1ccccc1Cl)c1ccccc1OCC(=O)NC` (stereo not drawn), -3.07%. With `Cc1nc2sccn2c1CNc1ccc(C(=O)O)cc1` the figure was -7.07%; with `Cc1nc2sccn2c1CNc1cc(C(=O)O)ccc1F`, -7.72%. On to `O=C(CNC(=O)C1CCCC1)NCC(O)c1ccc2ccccc2c1` (stereo not drawn), for which the cytotoxicity at 70.5 h was -0.471%. With `CC(C)(C)CC(=O)NCC(=O)NCC(O)c1ccc2ccccc2c1` (stereo not drawn) the figure was 4.11%; with `CC(C)n1ccc(=O)nc1SC1CCN(c2ccccc2F)C1=O` (stereo not drawn), -1.73%; with `O=C1OCCN1c1cccc(CNCc2cc(F)ccc2F)c1`, 22.6%. With `CS(=O)(=O)NC(=O)CCc1cccc(OC2CCCC2)c1` the figure was -5.51%.

As for `COc1cc(F)c(C(C)NC(=O)c2cccnc2C)cc1OC` (stereo not drawn), the cytotoxicity at 70.5 h came out at 2.35%. With `COC(=O)CCC(=O)Nc1ccc(Br)c(C)n1` the figure was -0.954%; with `CCc1nc(CC(=O)N2CCC(C(=O)N3CCCCC3)CC2)cs1`, -4.54%; with `CC(C)CNC(=O)CNC(=O)NCC(O)c1ccc2ccccc2c1` (stereo not drawn), -3.3%. With `O=C(O)CN1CCC(c2ccccc2)CC1` the figure was -3.19%; with `CNC(=O)C(NC(=O)CCc1cccc(OC2CCCC2)c1)C(C)C` (stereo not drawn), 6.19%.

Take `CCn1cc(S(=O)(=O)N2CCC(C)Sc3ccccc32)cn1` (stereo not drawn): the cytotoxicity at 70.5 h was -1.33%. With `CCn1cc(S(=O)(=O)N2CCCSc3ccccc32)cn1` the figure was -7.44%. With `CCC(=O)NC1CCCN(Cn2nc(C(C)(C)C)ccc2=O)C1` (stereo not drawn) the figure was -4.43%; with `Cc1ccc(N(C)Cc2nnnn2C2CC2)c(C)c1`, -5.96%. With `CC(C)c1ccc(CNC(C)c2ccc(S(=O)(=O)N(C)C)cc2)cc1` (stereo not drawn) the figure was -2.78%; with `CCOCC1CCN(C(=O)c2sc(C)cc2OC(F)F)CC1`, -5.96%; with `COc1ccccc1C1(CNCc2cccc(O)c2)CCOCC1`, -2.11%.

Regarding `CN(C)C(C)(C)CNCc1cn(C)nc1-c1cccnc1`, the cytotoxicity at 70.5 h was 17.8%.
